Consider 16 molecules from ChEMBL document CHEMBL6178023 (J Med Chem, 2025).

Data set [1] deals with Chikungunya virus. Put plainly: Antiviral activity against CHIKV 181/25 expressing nLuc-capsid gene infected in human MRC5 cells assessed as reduction in viral replication preincubated with cells for 1 hr followed by viral infection measured after 6 hrs post-infection by Nano-glo luciferase assay. It counts as functional, organism-based. The note with it: 181/25, MRC5, read-out: pEC50 (converted).

Data set [2] concerns Chikungunya virus. Put plainly: Inhibition of N-terminal 6-His/SUMO-tagged CHIKV 181/25 nsP2 extracted from Escherichia coli Rosetta 2 at 200 uM preincubated for 30 mins followed by ATP addition measured after 1 hr by ADP-Glo assay relative to control. The note with it: time 90.0 min. For orientation: ADP-Glo turns the ADP formed in a reaction into a luminescent signal.
Data set [3] in a line: Aqueous solubility of compound in PBS at pH 7.4. It is filed as physicochemical.
Data set [4] has as its system Chikungunya virus. As to the kind of experiment: Antiviral activity against CHIKV 181/25 expressing nLuc-capsid gene infected in human MRC5 cells assessed as inhibition of viral replication at 40 uM preincubated with cells for 1 hr followed by viral infection measured after 6 hrs post-infection by Nano-glo luciferase assay relative to control. It counts as functional. The note with it: for inhibition at 40 µM: 181/25, MRC5, time 7 hrs; for inhibition: time 7.0 hrs.

The next data set concerns MRC5. Put plainly: Cytotoxicity against human MRC5 cells at 10 to 40 uM by Cell Titer Glo assay. It counts as toxicity, cell-based. The note with it: mrc5, 40 µM, dose 10-40 µM. A general note: Cellular ATP, detected with luciferase, serves as a proxy for viable cell number.
The target of data set [5] is T1, Polyprotein P1234 (Chikungunya virus (strain S27-African prototype) (CHIKV), UniProt Q8JUX6). As to the kind of experiment: Inhibition of N-terminal 6-His/SUMO-tagged CHIKV 181/25 nsP2 extracted from Escherichia coli Rosetta 2 preincubated for 30 mins followed by ATP addition measured after 1 hr by ADP-Glo assay.
Data set [6] is described as follows: Aqueous solubility of compound. The note with it: buffer. It is filed as physicochemical.
The nature of data set [7]: Selectivity ratio of pEC50 for antiviral activity against VEEV expressing nLuc to pEC50 for antiviral activity against CHIKV 181/25 expressing nLuc-capsid gene infected in human MRC5 cells. It is filed as functional.
For data set [8], the system named is Chikungunya virus. As to the kind of experiment: Anti-viral activity against CHIKV infected in human NHDF cells assessed as reduction in viral titer incubated with cells for 1 hr followed by viral infection for 2 hrs and subsequent replacement of fresh media with compound measured after 24 hrs post-infection by extracting viral supernatant from cells and transferring supernatant to African geen monkey Vero cells for measuring plaque formation. It counts as functional, organism-based. The note with it: dose 0.01-100 µM, time 25.0 hrs.

Data set [9] concerns Mayaro virus. Put plainly: Anti-viral activity against MAYV infected in human NHDF cells assessed as reduction in viral titer incubated with cells for 1 hr followed by viral infection for 2 hrs and subsequent replacement of fresh media with compound measured after 24 hrs post-infection by extracting viral supernatant from cells and transferring supernatant to African geen monkey Vero cells for measuring plaque formation. It counts as functional, organism-based. The note with it: dose 0.01-100 µM, time 25.0 hrs.

For data set [10], the system named is Mayaro virus. Put plainly: Anti-viral activity against MAYV infected in human NHDF cells assessed as log reduction in viral titer at 0.01 to 100 uM incubated with cells for 1 hr followed by viral infection for 2 hrs and subsequent replacement of fresh media with compound measured after 24 hrs post-infection by extracting viral supernatant from cells and transferring supernatant to African geen monkey Vero cells for measuring plaque formation. It counts as functional. The note with it: dose 0.01-100 µM; time 25 hrs.

In data set [11] the target is Polyprotein P1234 (Chikungunya virus (strain S27-African prototype) (CHIKV)) (UniProt Q8JUX6). Put plainly: Inhibition of N-terminal 6-His/SUMO-tagged CHIKV 181/25 nsP2 extracted from Escherichia coli Rosetta 2 assessed as decrease in nsP2 ATPase activity up to 100 uM measured for 5 to 10 mins in presence of [alpha-32P]-ATP by TLC method. Conditions: time 5-10 min.
Target sequence in this assay (Q8JUX6 whole entry): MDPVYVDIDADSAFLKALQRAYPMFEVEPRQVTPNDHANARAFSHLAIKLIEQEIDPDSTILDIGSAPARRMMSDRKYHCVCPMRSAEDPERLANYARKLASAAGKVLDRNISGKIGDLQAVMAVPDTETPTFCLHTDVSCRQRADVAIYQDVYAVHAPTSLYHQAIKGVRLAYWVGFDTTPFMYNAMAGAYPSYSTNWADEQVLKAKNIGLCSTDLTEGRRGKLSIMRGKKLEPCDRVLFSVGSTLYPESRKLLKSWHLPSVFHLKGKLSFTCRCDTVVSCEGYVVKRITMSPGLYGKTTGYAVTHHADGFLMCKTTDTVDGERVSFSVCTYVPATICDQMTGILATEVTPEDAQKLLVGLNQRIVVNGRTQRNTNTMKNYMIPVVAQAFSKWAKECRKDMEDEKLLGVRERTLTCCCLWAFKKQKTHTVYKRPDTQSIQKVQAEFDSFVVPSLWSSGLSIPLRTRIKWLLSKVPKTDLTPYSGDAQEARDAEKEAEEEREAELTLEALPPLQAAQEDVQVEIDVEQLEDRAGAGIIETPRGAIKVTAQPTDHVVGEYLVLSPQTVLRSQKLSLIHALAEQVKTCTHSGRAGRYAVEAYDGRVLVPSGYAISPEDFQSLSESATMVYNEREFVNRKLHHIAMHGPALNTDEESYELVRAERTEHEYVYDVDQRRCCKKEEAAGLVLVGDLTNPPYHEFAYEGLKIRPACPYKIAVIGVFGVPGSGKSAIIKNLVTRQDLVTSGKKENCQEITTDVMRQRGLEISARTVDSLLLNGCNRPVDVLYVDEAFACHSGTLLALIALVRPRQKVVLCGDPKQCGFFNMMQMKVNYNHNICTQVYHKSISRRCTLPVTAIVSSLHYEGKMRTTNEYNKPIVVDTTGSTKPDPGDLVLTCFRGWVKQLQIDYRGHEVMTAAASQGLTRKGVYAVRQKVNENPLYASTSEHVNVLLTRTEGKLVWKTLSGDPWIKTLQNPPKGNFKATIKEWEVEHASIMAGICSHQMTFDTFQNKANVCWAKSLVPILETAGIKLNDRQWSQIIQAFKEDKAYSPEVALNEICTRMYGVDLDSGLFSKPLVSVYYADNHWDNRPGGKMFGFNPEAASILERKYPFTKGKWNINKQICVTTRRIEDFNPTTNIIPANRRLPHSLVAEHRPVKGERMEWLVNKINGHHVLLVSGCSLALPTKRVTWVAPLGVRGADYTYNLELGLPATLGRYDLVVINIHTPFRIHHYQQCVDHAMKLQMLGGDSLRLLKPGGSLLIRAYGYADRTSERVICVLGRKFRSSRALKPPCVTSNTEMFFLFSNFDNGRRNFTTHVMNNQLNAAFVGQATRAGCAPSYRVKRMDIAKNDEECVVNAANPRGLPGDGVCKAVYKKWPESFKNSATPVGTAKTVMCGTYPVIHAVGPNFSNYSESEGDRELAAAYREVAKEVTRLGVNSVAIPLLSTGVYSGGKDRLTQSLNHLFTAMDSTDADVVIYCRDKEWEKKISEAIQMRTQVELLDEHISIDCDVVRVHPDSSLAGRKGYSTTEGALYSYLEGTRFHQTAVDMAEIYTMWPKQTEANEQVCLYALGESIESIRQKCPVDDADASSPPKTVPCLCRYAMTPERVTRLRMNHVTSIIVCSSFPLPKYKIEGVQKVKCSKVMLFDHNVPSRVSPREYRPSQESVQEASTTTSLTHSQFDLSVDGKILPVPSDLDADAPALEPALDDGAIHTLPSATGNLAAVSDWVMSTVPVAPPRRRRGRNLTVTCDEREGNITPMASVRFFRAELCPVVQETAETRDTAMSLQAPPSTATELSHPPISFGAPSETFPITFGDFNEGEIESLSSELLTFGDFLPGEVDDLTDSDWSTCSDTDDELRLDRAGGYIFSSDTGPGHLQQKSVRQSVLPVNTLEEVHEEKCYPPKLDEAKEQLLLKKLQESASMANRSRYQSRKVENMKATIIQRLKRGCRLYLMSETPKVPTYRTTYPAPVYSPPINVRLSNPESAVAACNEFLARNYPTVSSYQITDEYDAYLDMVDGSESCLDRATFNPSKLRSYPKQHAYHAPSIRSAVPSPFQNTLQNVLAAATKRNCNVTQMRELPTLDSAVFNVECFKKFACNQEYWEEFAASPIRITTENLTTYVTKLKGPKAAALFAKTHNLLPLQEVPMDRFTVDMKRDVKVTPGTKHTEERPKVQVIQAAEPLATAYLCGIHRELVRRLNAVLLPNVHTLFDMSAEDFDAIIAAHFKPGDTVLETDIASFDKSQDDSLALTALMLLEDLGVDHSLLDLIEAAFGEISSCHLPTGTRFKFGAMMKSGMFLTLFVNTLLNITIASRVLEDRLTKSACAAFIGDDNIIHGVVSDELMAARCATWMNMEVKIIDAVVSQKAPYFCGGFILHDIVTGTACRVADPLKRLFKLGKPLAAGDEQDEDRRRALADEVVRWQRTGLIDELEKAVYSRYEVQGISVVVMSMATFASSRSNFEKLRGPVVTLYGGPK

Data set [12] shares this target. As to the kind of experiment: Binding affinity to N-terminal 6-His/SUMO-tagged CHIKV 181/25 nsP2 extracted from Escherichia coli Rosetta 2 assessed as decrease in Vmax up to 2.5 uM in presence of [alpha-32P]-ATP by TLC method.
Target sequence in this assay (Q8JUX6 whole entry): as above
Data set [13] shares this target. As to the kind of experiment: Binding affinity to N-terminal 6-His/SUMO-tagged CHIKV 181/25 nsP2 extracted from Escherichia coli Rosetta 2 assessed as unchanged Km up to 2.5 uM in presence of [alpha-32P]-ATP by TLC method.
Target sequence in this assay (Q8JUX6 whole entry): as above
For data set [14] the target is unchanged. Put plainly: (§1) Inhibition of N-terminal 6-His/SUMO-tagged CHIKV 181/25 nsP2 extracted from Escherichia coli Rosetta 2 assessed as decrease in nsP2 helicase activity in presence of RNA duplex composed of 39mer loading RNA strand/19mer displaced RNA strand by gel electrophoresis. The note with it: dose 0.01-100 µM.
Target sequence in this assay (Q8JUX6 536-1333 limits assumed): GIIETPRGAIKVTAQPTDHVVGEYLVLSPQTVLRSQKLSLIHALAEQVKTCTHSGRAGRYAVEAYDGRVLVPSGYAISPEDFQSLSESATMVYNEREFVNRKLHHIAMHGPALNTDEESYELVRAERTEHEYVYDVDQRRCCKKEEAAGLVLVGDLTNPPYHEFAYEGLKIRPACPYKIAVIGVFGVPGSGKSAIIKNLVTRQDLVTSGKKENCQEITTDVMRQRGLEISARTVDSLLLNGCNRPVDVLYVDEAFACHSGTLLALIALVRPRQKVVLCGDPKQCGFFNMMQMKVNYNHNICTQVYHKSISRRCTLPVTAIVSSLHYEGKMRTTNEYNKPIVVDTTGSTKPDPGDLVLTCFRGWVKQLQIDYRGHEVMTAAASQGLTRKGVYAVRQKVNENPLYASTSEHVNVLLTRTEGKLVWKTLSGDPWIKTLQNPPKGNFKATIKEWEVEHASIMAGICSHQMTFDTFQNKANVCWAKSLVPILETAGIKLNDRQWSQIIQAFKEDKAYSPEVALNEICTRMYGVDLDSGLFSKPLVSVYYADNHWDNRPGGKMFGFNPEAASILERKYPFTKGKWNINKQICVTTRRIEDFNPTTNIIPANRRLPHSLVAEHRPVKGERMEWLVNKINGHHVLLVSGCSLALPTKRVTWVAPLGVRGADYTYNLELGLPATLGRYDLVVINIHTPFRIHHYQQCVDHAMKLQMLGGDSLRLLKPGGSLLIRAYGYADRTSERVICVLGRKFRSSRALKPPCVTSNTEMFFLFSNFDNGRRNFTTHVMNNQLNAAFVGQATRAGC
Data set [15] concerns the target T1, Polyprotein P1234. The data set is described as §1.
Data set [16] concerns the target Polyprotein P1234 (Chikungunya virus (strain S27-African prototype) (CHIKV)) (UniProt Q8JUX6). Put plainly: Binding affinity to N-terminal 6-His/SUMO-tagged CHIKV 181/25 nsP2 extracted from Escherichia coli Rosetta 2 using fluorescein-labeled dsRNA template incubated for 30 mins by fluorescence polarization assay. (In general: In fluorescence polarisation assays a small probe gives low polarisation when free and higher when bound to something large.)
Target sequence in this assay (Q8JUX6 whole entry): as the sequence (Q8JUX6 whole entry) above

Converted amounts (≈) assume the structure as drawn. The source made the active and inactive calls. The calls are words filed in the database; no cut-off is given here.

The inhibition is the change of the read-out against control, counted positive when it falls. One may read the solubility (kinetic) as the concentration staying in solution when a stock, usually in DMSO, is diluted into the medium. Usually IC50 stands for the midpoint of a concentration-inhibition curve. In general, solubility refers to the dissolved amount per volume that the medium holds.

T1 sequence (Q8JUX6 536-1333 limits assumed): as the sequence (Q8JUX6 536-1333 limits assumed) above

`CCCCCCOc1ccc(C(=O)NCC2CCOC3(CCN(C(=O)C4(c5ccccc5)CCCC4)CC3)C2)cc1` (stereo unspecified): in the data set with Chikungunya virus [1], the EC50 is over 39.8 µM. In addition, in the data set with Chikungunya virus [2], the inhibition entry was “inactive”. Moreover, the solubility (kinetic) in data set [3] was under 1 µM. In addition, the inhibition at 40 µM with Chikungunya virus [4] was determined as 70%. The Activity entry with MRC5 is “Non-toxic”.
Consider `CS(=O)(=O)NCC1CCOC2(CCN(C(=O)C3(c4ccccc4)CCOCC3)CC2)C1` (stereo unspecified), for which the inhibition entry with Chikungunya virus [2] and in the data set on Chikungunya virus [4] was “inactive” throughout. In [3], this molecule registered a solubility (kinetic) of 190 µM (≈ 85.6 µg/mL). For the same molecule, in the data set on MRC5, the Activity entry is “Non-toxic”.
On to `CN(C)S(=O)(=O)NCC1CCOC2(CCN(C(=O)C3(c4ccccn4)CCCC3)CC2)C1` (stereo unspecified), for which the EC50 with Chikungunya virus [1] is over 39.8 µM. Also, the 50% inhibitory concentration (IC50) at Polyprotein P1234 [5] was over 39.8 µM. In the data set with Chikungunya virus [2], the inhibition is 40%. Moreover, the inhibition at 40 µM in the data set on Chikungunya virus [4] stood at 70%. For the same molecule, in the data set on MRC5, the Activity entry was “Non-toxic”.
Regarding `NCC1CCOC2(CCN(C(=O)C3(c4ccccc4)CCCC3)CC2)C1` (stereo unspecified), the EC50 in the data set on Chikungunya virus [1] was over 39.8 µM. The inhibition entry in the data set on Chikungunya virus [2] was “inactive”. Also, the kinetic solubility in data set [3] was found to be 160 µM (≈ 57 µg/mL). In the data set on Chikungunya virus [4], the inhibition at 40 µM was 60%. Also, the Activity result in the data set with MRC5 is listed as “Non-toxic”.
For the molecule `CS(=O)(=O)NCC1CCOC2(CCN(C(=O)C3(c4ccccc4)CCC3)CC2)C1` (stereo unspecified), the inhibition result with Chikungunya virus [2] and in the data set with Chikungunya virus [4] was “inactive” throughout. The molecule also showed a solubility (kinetic) in data set [3] of 160 µM (≈ 67.3 µg/mL). Further, in the data set with MRC5, the Activity entry is reported as “Non-toxic”.
`CN(C)S(=O)(=O)NCC1CCOC2(CCN(C(=O)C3(c4ccccc4)CCCO3)CC2)C1` (stereo unspecified): the inhibition result in the data set on Chikungunya virus [2] and in the data set on Chikungunya virus [4] was “inactive” in each case. Also, the solubility (kinetic) in data set [3] turned out to be 200 µM (≈ 93.1 µg/mL). In the data set with MRC5, the Activity entry is recorded as “Non-toxic”.
With `CN(C)S(=O)(=O)NCC1CCOC2(CCN(C(=O)C(=O)c3ccccc3)CC2)C1` (stereo unspecified), the inhibition result in the data set with Chikungunya virus [2] and with Chikungunya virus [4] was “inactive” throughout. The molecule further had a kinetic solubility in data set [3] of 170 µM (≈ 72 µg/mL). For the same molecule, the Activity entry with MRC5 is “Non-toxic”.
With `O=C(N1CCC2(CC1)CC(CN1CCCCS1(=O)=O)CCO2)C1(c2ccc(F)cc2)CCCC1` (stereo unspecified), the EC50 with Chikungunya virus [1] is over 39.8 µM. For the same molecule, the IC50 on Polyprotein P1234 [5] is over 39.8 µM. In the data set with Chikungunya virus [2], this molecule gave an inhibition of 80%. The molecule also yielded a kinetic solubility in [3] of 190 µM (≈ 93.6 µg/mL). Further, the inhibition at 40 µM with Chikungunya virus [4] came out at 90%. For the same molecule, the Activity result with MRC5 was “Non-toxic”.
As for `CNCC1CCOC2(CCN(C(=O)C3(c4ccccc4)CCCC3)CC2)C1` (stereo unspecified), the EC50 with Chikungunya virus [1] is over 39.8 µM. Also, the inhibition entry with Chikungunya virus [2] is “inactive”. For the same molecule, the kinetic solubility in [3] is 170 µM (≈ 63 µg/mL). In addition, the inhibition at 40 µM with Chikungunya virus [4] is 60%. Further, the Activity result in the data set on MRC5 is “Non-toxic”.
Consider `CS(=O)(=O)NCC1CCOC2(CCN(C(=O)Cc3ccccc3)CC2)C1` (stereo unspecified), for which the inhibition entry in the data set with Chikungunya virus [2] and with Chikungunya virus [4] was “inactive” throughout. In [3], this molecule yielded a kinetic solubility of 200 µM (≈ 76.1 µg/mL). The Activity entry in the data set on MRC5 is listed as “Non-toxic”.
`CS(=O)(=O)NCC1CCOC2(CCN(C(=O)C3(c4ccc(Cl)cc4)CCCC3)CC2)C1` (stereo unspecified): the EC50 in the data set on Chikungunya virus [1] was over 39.8 µM. In the data set on Chikungunya virus [2], the inhibition entry was “inactive”. The inhibition at 40 µM in the data set on Chikungunya virus [4] was determined as 70%. Moreover, the Activity result with MRC5 is “Non-toxic”.
Take `Cc1ccnc(OC2CCOC3(CCN(C(=O)C4(c5ccccc5)CCCC4)CC3)C2)c1` (stereo unspecified): the EC50 in the data set on Chikungunya virus [1] is 12.6 µM. Besides, on Polyprotein P1234 [5], the IC50 was over 39.8 µM. For the same molecule, the inhibition in the data set with Chikungunya virus [2] was determined as 40%. In data set [6], the concentration in solution (solubility) came to 14 µM (≈ 6.08 µg/mL). In the data set with MRC5, the Activity result is reported as “Non-toxic”. Besides, in [7], the Ratio was 10.
In the case of `CS(=O)(=O)NCC1CCOC2(CCN(C(=O)C3(c4ccccc4)CCCC3)CC2)C1` (stereo unspecified), the EC50 in the data set on Chikungunya virus [1] is 3.16 µM. The molecule also showed a half-maximal inhibitory concentration (IC50) at Polyprotein P1234 [5] of over 39.8 µM. Moreover, in the data set with Chikungunya virus [2], the inhibition is 40%. In addition, in data set [6], the concentration in solution (solubility) came to 240 µM (≈ 104 µg/mL). Also, the Activity entry in the data set on MRC5 was “Non-toxic”. Moreover, in data set [7], the Ratio amounted to 10.
Consider `NCC1(O)CCOC2(CCN(C(=O)C3(c4ccccc4)CCCC3)CC2)C1` (stereo unspecified), for which, in the data set on Chikungunya virus [1], the EC50 is over 39.8 µM. For the same molecule, the inhibition entry in the data set on Chikungunya virus [2] was “inactive”. Also, the solubility (kinetic) in [3] stood at 170 µM (≈ 63.3 µg/mL). The inhibition at 40 µM with Chikungunya virus [4] came out at 50%. Besides, the Activity result in the data set with MRC5 was “Non-toxic”.
Take `O=C(N1CCC2(CC1)CC(CN1CCCCS1(=O)=O)CCO2)C1(c2ccccc2)CCCC1` (stereo unspecified): the EC50 with Chikungunya virus [1] is 0.126 µM. Further, the concentration for half-maximal inhibition (IC50) on Polyprotein P1234 [5] was 0.501 µM; on Polyprotein P1234 [15] it was 0.9 µM. The kinetic solubility in data set [3] was over 220 µM. Besides, the Activity result in the data set with MRC5 is “Non-toxic”; in the data set with Chikungunya virus [8], “Dose-dependent-effect”; in the data set on Mayaro virus [9], “Dose-dependent-effect”; in the data set with Mayaro virus [10] it was 0.01 10^5No_unit; in [16], “Active; Compound Did Not Involve Direct Displacement Of Rna Substrate Suggesting Allosteric Mechanism Of Helicase Inhibition”. For the same molecule, the inhibition result in data set [11] was “Active; Ic50 Of Compound Was Same At Both # And # Mins”; in data set [14], “Dose-dependent-effect”. Also, the result in data set [12] and in data set [13] was Active.
Turning to `CC(C)(C(=O)N1CCC2(CC1)CC(CNS(C)(=O)=O)CCO2)c1ccccc1` (stereo unspecified), in the data set with Chikungunya virus [1], the EC50 was over 39.8 µM. For the same molecule, the half-inhibitory concentration (IC50) on Polyprotein P1234 [5] is over 39.8 µM. In addition, the inhibition in the data set on Chikungunya virus [2] came to 40%. The molecule further gave a kinetic solubility in [3] of 220 µM (≈ 89.9 µg/mL). In addition, the inhibition at 40 µM with Chikungunya virus [4] came to 50%. Besides, in the data set with MRC5, the Activity result is listed as “Non-toxic”.
